Reference: ChEMBL document CHEMBL3046815, “Evaluation of fungicides for the management of Botryosphaeria dieback diseases of grapevines” (Pest Manag Sci, 2012)

Legend:
Neofusicoccum luteum [1] = assay: Fungicidal activity against Neofusicoccum luteum N(12)2 assessed as conidial germination inhibition after 48 hr; assay type: functional, organism-based; settings: pooled result: one value given for 3 cell lines, strains, targets or settings
Neofusicoccum luteum [2] = assay: Fungicidal activity against Neofusicoccum luteum infected Pinot noir grapevine assessed as dieback lesion length at 210 g AI /100 L applied 24 hr prior inoculation to pruning wound measured after 3 months; assay type: functional
Neofusicoccum luteum [3] = assay: Fungicidal activity against Neofusicoccum luteum infected Pinot noir grapevine assessed as pathogen incidence at 210 g AI /100 L applied 24 hr prior inoculation to pruning wound measured after 3 months; assay type: functional
Neofusicoccum australe [4] = assay: Fungicidal activity against Neofusicoccum australe J-3 assessed as conidial germination inhibition after 48 hr; assay type: functional, organism-based; settings: pooled result: one value given for 3 cell lines, strains, targets or settings
Diplodia mutila [5] = assay: Fungicidal activity against Diplodia mutila Q assessed as mycelial growth inhibition after 48 hr; assay type: functional, organism-based; settings: pooled result: one value given for 3 cell lines, strains, targets or settings
Neofusicoccum luteum [6] = assay: Fungicidal activity against Neofusicoccum luteum N(12)2 assessed as mycelial growth inhibition after 48 hr; assay type: functional, organism-based; settings: pooled result: one value given for 3 cell lines, strains, targets or settings
Diplodia mutila [7] = assay: Fungicidal activity against Diplodia mutila Q assessed as conidial germination inhibition after 48 hr; assay type: functional, organism-based; settings: pooled result: one value given for 3 cell lines, strains, targets or settings
Neofusicoccum australe [8] = assay: Fungicidal activity against Neofusicoccum australe J-3 assessed as mycelial growth inhibition after 48 hr; assay type: functional, organism-based; settings: pooled result: one value given for 3 cell lines, strains, targets or settings
Neofusicoccum luteum [9] = assay: Fungicidal activity against Neofusicoccum luteum infected Pinot noir grapevine assessed as dieback lesion length at 39 g AI /100 L applied 24 hr prior inoculation to pruning wound measured after 3 months; assay type: functional
Neofusicoccum luteum [10] = assay: Fungicidal activity against Neofusicoccum luteum infected Pinot noir grapevine assessed as pathogen incidence at 39 g AI /100 L applied 24 hr prior inoculation to pruning wound measured after 3 months; assay type: functional
Neofusicoccum luteum [11] = assay: Fungicidal activity against Neofusicoccum luteum infected Pinot noir grapevine assessed as mean pathogen compound applied 24 hr prior inoculation to pruning wound measured after 1 year; assay type: functional; set-up: concentration or dose not given beside the values
Neofusicoccum luteum [12] = assay: Fungicidal activity against Neofusicoccum luteum infected Pinot noir grapevine assessed as non-lesion areas compound applied 24 hr prior inoculation to pruning wound measured after 1 year; assay type: functional; set-up: concentration or dose not given beside the values
Neofusicoccum luteum [13] = assay: Fungicidal activity against Neofusicoccum luteum infected Pinot noir grapevine assessed as pathogen incidence at dieback edges compound applied 24 hr prior inoculation to pruning wound measured after 1 year; assay type: functional; set-up: concentration or dose not given beside the values
Neofusicoccum luteum [14] = assay: Fungicidal activity against Neofusicoccum luteum infected Pinot noir grapevine assessed as dieback lesion length at 2.5 g AI /100 L applied 24 hr prior inoculation to pruning wound measured after 3 months; assay type: functional
Neofusicoccum luteum [15] = assay: Fungicidal activity against Neofusicoccum luteum infected Pinot noir grapevine assessed as pathogen incidence at area beyond node compound applied 24 hr prior inoculation to pruning wound measured after 1 year; assay type: functional; set-up: concentration or dose not given beside the values
Neofusicoccum luteum [16] = assay: Fungicidal activity against Neofusicoccum luteum infected Pinot noir grapevine assessed as pathogen incidence at 2.5 g AI /100 L applied 24 hr prior inoculation to pruning wound measured after 3 months; assay type: functional
Neofusicoccum luteum [17] = assay: Fungicidal activity against Neofusicoccum luteum infected Pinot noir grapevine assessed as pathogen incidence at closest side shoot compound applied 24 hr prior inoculation to pruning wound measured after 6 months; assay type: functional; set-up: concentration or dose not given beside the values
Neofusicoccum luteum [18] = assay: Fungicidal activity against Neofusicoccum luteum infected Pinot noir grapevine assessed as pathogen incidence at dieback sites compound applied 24 hr prior inoculation to pruning wound measured after 1 year; assay type: functional; set-up: concentration or dose not given beside the values
Neofusicoccum luteum [19] = assay: Fungicidal activity against Neofusicoccum luteum infected Pinot noir grapevine assessed as dieback lesion length at 4 g AI /100 L applied 24 hr prior inoculation to pruning wound measured after 3 months; assay type: functional
Neofusicoccum luteum [20] = assay: Fungicidal activity against Neofusicoccum luteum infected Pinot noir grapevine assessed as pathogen incidence at 4 g AI /100 L applied 24 hr prior inoculation to pruning wound measured after 3 months; assay type: functional
Neofusicoccum luteum [21] = assay: Fungicidal activity against Neofusicoccum luteum infected Pinot noir grapevine assessed as pathogen incidence at 50 g AI /100 L applied 24 hr prior inoculation to pruning wound measured after 3 months; assay type: functional
Neofusicoccum luteum [22] = assay: Fungicidal activity against Neofusicoccum luteum infected Pinot noir grapevine assessed as dieback lesion length at 50 g AI /100 L applied 24 hr prior inoculation to pruning wound measured after 3 months; assay type: functional
Neofusicoccum luteum [23] = assay: Fungicidal activity against Neofusicoccum luteum infected Pinot noir grapevine assessed as pathogen incidence at 45 g AI /100 L applied 24 hr prior inoculation to pruning wound measured after 3 months; assay type: functional
Neofusicoccum luteum [24] = assay: Fungicidal activity against Neofusicoccum luteum infected Pinot noir grapevine assessed as dieback lesion length at 45 g AI /100 L applied 24 hr prior inoculation to pruning wound measured after 3 months; assay type: functional
Neofusicoccum luteum [25] = assay: Fungicidal activity against Neofusicoccum luteum infected Pinot noir grapevine assessed as pathogen incidence at 55 g AI /100 L applied 24 hr prior inoculation to pruning wound measured after 3 months; assay type: functional
Neofusicoccum luteum [26] = assay: Fungicidal activity against Neofusicoccum luteum infected Pinot noir grapevine assessed as dieback lesion length at 55 g AI /100 L applied 24 hr prior inoculation to pruning wound measured after 3 months; assay type: functional
Neofusicoccum luteum [27] = assay: Fungicidal activity against Neofusicoccum luteum infected Pinot noir grapevine assessed as dieback lesion length at 32 g AI /100 L applied 24 hr prior inoculation to pruning wound measured after 3 months; assay type: functional
Neofusicoccum luteum [28] = assay: Fungicidal activity against Neofusicoccum luteum infected Pinot noir grapevine assessed as pathogen incidence at 32 g AI /100 L applied 24 hr prior inoculation to pruning wound measured after 3 months; assay type: functional
Neofusicoccum luteum [29] = assay: Fungicidal activity against Neofusicoccum luteum infected Pinot noir grapevine assessed as dieback lesion length at 40 g AI /100 L applied 24 hr prior inoculation to pruning wound measured after 3 months; assay type: functional
Neofusicoccum luteum [30] = assay: Fungicidal activity against Neofusicoccum luteum infected Pinot noir grapevine assessed as pathogen incidence at 40 g AI /100 L applied 24 hr prior inoculation to pruning wound measured after 3 months; assay type: functional
Neofusicoccum luteum [31] = assay: Fungicidal activity against Neofusicoccum luteum infected Pinot noir grapevine assessed as dieback lesion length at 80 g AI /100 L applied 24 hr prior inoculation to pruning wound measured after 3 months; assay type: functional, organism-based
Neofusicoccum luteum [32] = assay: Fungicidal activity against Neofusicoccum luteum infected Pinot noir grapevine assessed as pathogen incidence at 80 g AI /100 L applied 24 hr prior inoculation to pruning wound measured after 3 months; assay type: functional, organism-based

| Molecule | EC50 (Neofusicoccum luteum [1]) | EC50 (Neofusicoccum australe [4]) | EC50 (Diplodia mutila [5]) | EC50 (Neofusicoccum luteum [6]) | EC50 (Diplodia mutila [7]) | EC50 (Neofusicoccum australe [8]) | Activity (Neofusicoccum luteum [11]) | Activity (Neofusicoccum luteum [12]) | Activity (Neofusicoccum luteum [13]) | Activity (Neofusicoccum luteum [15]) | Activity (Neofusicoccum luteum [17]) | Activity (Neofusicoccum luteum [18]) | also measured |
| --- | --- | --- | --- | --- | --- | --- | --- | --- | --- | --- | --- | --- | --- |
| N#Cc1c(Cl)c(Cl)c(Cl)c(C#N)c1Cl [CHLOROTHALONIL] | 11.15 mgAi/L | 10.79 mgAi/L | 0.258 mgAi/L | 7.873 mgAi/L | 1.35 mgAi/L | 3.847 mgAi/L | – | – | – | – | – | – | Activity (Neofusicoccum luteum [2]): 51.9 mm; Activity (Neofusicoccum luteum [3]): 30% |
| N#Cc1sc2c(=O)c3ccccc3c(=O)c=2sc1C#N [DITHIANON] | 19.11 mgAi/L | 19.1 mgAi/L | 44.87 mgAi/L | 73.41 mgAi/L | 11.39 mgAi/L | 58.897 mgAi/L | – | – | – | – | – | – | Activity (Neofusicoccum luteum [9]): 49.6 mm; Activity (Neofusicoccum luteum [10]): 30% |
| OC(c1ccc(Cl)cc1)(c1cncnc1)c1ccccc1Cl (stereo not drawn) [FENARIMOL] | 7.44 mgAi/L | 22.5 mgAi/L | 0.076 mgAi/L | 0.399 mgAi/L | 0.48 mgAi/L | 0.58 mgAi/L | 27% | 20% | 40% | 0% | 0% | 77% | Activity (Neofusicoccum luteum [14]): 52.8 mm; Activity (Neofusicoccum luteum [16]): 20% |
| C[Si](Cn1cncn1)(c1ccc(F)cc1)c1ccc(F)cc1 [FLUSILAZOLE] | 1.23 mgAi/L | 1.34 mgAi/L | 0.001 mgAi/L | 0.003 mgAi/L | 0.56 mgAi/L | 0.002 mgAi/L | 0% | 0% | 0% | 0% | 0% | 0% | Activity (Neofusicoccum luteum [19]): 41.4 mm; Activity (Neofusicoccum luteum [20]): 0% |
| CC(C)NC(=O)N1CC(=O)N(c2cc(Cl)cc(Cl)c2)C1=O [IPRODIONE] | 0.04 mgAi/L | 0.05 mgAi/L | 0.247 mgAi/L | 0.314 mgAi/L | 0.03 mgAi/L | 0.273 mgAi/L | 34% | 30% | 53% | 0% | 3% | 83% | Activity (Neofusicoccum luteum [21]): 0%; Activity (Neofusicoccum luteum [22]): 39.9 mm |
| COCC(=O)N(c1c(C)cccc1C)C(C)C(=O)OC (stereo not drawn) [METALAXYL] | 218.01 mgAi/L | 113.11 mgAi/L | 61.995 mgAi/L | 188 mgAi/L | 45.72 mgAi/L | 102.6 mgAi/L | – | – | – | – | – | – | – |
| CCCN(CCOc1c(Cl)cc(Cl)cc1Cl)C(=O)n1ccnc1 [PROCHLORAZ] | 46.86 mgAi/L | 13.23 mgAi/L | 0.001 mgAi/L | 0.054 mgAi/L | 22.97 mgAi/L | 0.098 mgAi/L | 43% | 40% | 67% | 0% | 13% | 97% | Activity (Neofusicoccum luteum [23]): 70%; Activity (Neofusicoccum luteum [24]): 60.5 mm |
| CC12CC1(C)C(=O)N(c1cc(Cl)cc(Cl)c1)C2=O (stereo not drawn) [PROCYMIDONE] | 0.02 mgAi/L | 0.01 mgAi/L | 0.227 mgAi/L | 0.183 mgAi/L | – | 0.23 mgAi/L | 27% | 20% | 40% | 0% | 7% | 70% | Activity (Neofusicoccum luteum [25]): 20%; Activity (Neofusicoccum luteum [26]): 47.8 mm |
| CC(C)(C)C(O)(CCc1ccc(Cl)cc1)Cn1cncn1 (stereo not drawn) [TEBUCONAZOLE] | 6.23 mgAi/L | 3.38 mgAi/L | 0.01 mgAi/L | 0.076 mgAi/L | 0.6 mgAi/L | 0.098 mgAi/L | 16% | 13% | 27% | 0% | 3% | 37% | Activity (Neofusicoccum luteum [27]): 50.2 mm; Activity (Neofusicoccum luteum [28]): 20% |
| COC(=O)NC(=S)Nc1ccccc1NC(=S)NC(=O)OC [THIOPHANATE METHYL] | 2.41 mgAi/L | 5.09 mgAi/L | 0.485 mgAi/L | 1.237 mgAi/L | 0.29 mgAi/L | 1.079 mgAi/L | 20% | 17% | 33% | 0% | 3% | 47% | Activity (Neofusicoccum luteum [29]): 53.3 mm; Activity (Neofusicoccum luteum [30]): 30% |
| O=CNC(N1CCN(C(NC=O)C(Cl)(Cl)Cl)CC1)C(Cl)(Cl)Cl (stereo not drawn) [TRIFORINE] | 159.9 mgAi/L | 126.3 mgAi/L | 0.039 mgAi/L | 23.73 mgAi/L | 49.59 mgAi/L | 28.139 mgAi/L | – | – | – | – | – | – | – |
| COPPER HYDROXIDE [listing 1 of 2 here] | 8.7 mgAi/L | 5.68 mgAi/L | 68.64 mgAi/L | 77.437 mgAi/L | 4.16 mgAi/L | 106.83 mgAi/L | – | – | – | – | – | – | – |
| COPPER HYDROXIDE [listing 2 of 2 here] | – | – | – | – | – | – | – | – | – | – | – | – | Activity (Neofusicoccum luteum [31]): 41.9 mm; Activity (Neofusicoccum luteum [32]): 20% |
